Structures can show the parent of a compound that is named as a salt.
System: HRECs treated with VEGF (human retinal endothelial cells)
Experiment: in vitro permeability / Electrical Cell-Substrate Impedance Sensing (ECIS) assay
Type: cell-based
Conditions: 50 ng/ml Rec. VEGF, compounds at 10 uM, resistance calculated at the end of 24 hrs
Protocol: The 250-um diameter gold electrode measures the ion current in the cell layer and measures the resistance and how the barrier function is altered with VEGF and drug treatment.
The inventors used the Prestwick chemical library compounds, which consists of a total of 1520 library compounds to check their effectiveness to decrease permeability in HRECs treated with VEGF (FIG. 4). […] The in vitro permeability or Electrical Cell-Substrate Impedance Sensing (ECIS) assay was carried out using Applied biophysics Z theta instrument, using 96W10idf PET plates. The HRECs were first seeded on the plates and the cells were allowed to grow until the desired resistance was achieved (800-1200V), this usually takes 15-18 hrs. After that the cells were treated with 50 ng/ml Rec. VEGF and the compounds at 10 uM concentration. At the end of 24 hrs, the resistance was calculated (an increase in resistance implies decreased permeability).

SMILES	resistance of EC layer (an increase in resistance implies decreased permeability)
N#Cc1ccc(Oc2ccc3c(c2)COB3O)cc1 [Crisaborole, crisaborole]	significant increase in resistance
O=[N+]([O-])c1ccc(O)c2ncccc12 [Nitroxolone, nitroxolone]	significant increase in resistance
CC(C(=O)O)c1ccc(C(=O)c2cccs2)cc1 (stereo not shown) [Suprofen, suprofen]	increased resistance
CNCCCC1c2ccccc2C=Cc2ccccc21 [Protriptyline HCl, protriptyline]	significant increase in resistance
CNCCCN1c2ccccc2CCc2ccccc21 [Desipramine HCl, desipramine]	significant increase in resistance
c1ccc2c(CC3=NCCN3)cccc2c1 [Naphazoline HCl, naphazoline]	increased resistance
OC[C@H]1O[C@@H](c2ccc(Cl)c(Cc3ccc(O[C@H]4CCOC4)cc3)c2)[C@H](O)[C@@H](O)[C@@H]1O [Empaglifozin, empagliflozin]	significant increase in resistance
CN(C)CCN(Cc1cccs1)c1ccccn1 [Methapyrilene, methapyrilene]	increased resistance
Cc1ccc(N(CC2=NCCN2)c2cccc(O)c2)cc1 [Phentolamine, phentolamine]	increased resistance
Cc1noc(NS(=O)(=O)c2ccc(N)cc2)c1C [Sulfisoxazole, sulfisoxazole]	increased resistance

Source: patent publication US20250381195A1, “Methods of Treating Diabetic Macular Edema” (UNM Rainforest Innovations, priority 2024, published 2025)
